Source: patent US10689622B2, “Culture medium for proliferating stem cell, which contains sulfated compound” (AJINOMOTO CO., INC., priority 2012, dated 2020)

How the values were obtained:
bFGF [1] = biological target: T1, bFGF (Homo sapiens, UniProt P09038); experiment: Evaluation of bFGF stabilization in Lonza serum-free medium (ELISA); format: biochemical; details: for bFGF concentration relative to that of 4° C. control (ELISA) / concentration showing a suppressive effect on a decrease in the bFGF concentration in the medium: Lonza serum-free medium; for effectiveness ELISA: effectiveness in ELISA evaluation of mesenchymal stem cells (medium), 4° C. control ratio
T1 construct: purchased Lonza (via TAKARA BIO INC.) Ser. No. 00/190,632
T1 sequence (P09038 143-288): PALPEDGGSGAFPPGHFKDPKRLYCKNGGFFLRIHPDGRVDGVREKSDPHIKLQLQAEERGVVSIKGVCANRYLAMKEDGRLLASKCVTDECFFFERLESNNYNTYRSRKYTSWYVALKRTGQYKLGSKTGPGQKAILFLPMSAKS
In short: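 Compound in PBS diluted 10-fold into serum-free medium and held sealed at 37 °C for 7 days (some sets 3 days). Remaining bFGF quantified by human bFGF sandwich ELISA against a standard curve. Controls were compound-free PBS-medium kept at 37 °C or 4 °C for the same period.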

bFGF [2] = biological target: T1, bFGF; experiment: Evaluation of bFGF stabilization in Essential 8 medium (ELISA); format: biochemical; details: 37° C. for 7 days
In short: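 Test compound in PBS diluted 10-fold into serum-free medium (Essential 8 or ReproFF2), held sealed at 37° C for 7 days; remaining bFGF quantified by ELISA against a standard curve. Controls: PBS without compound diluted into each medium, held 7 days at 37° C or 4° C.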

iPS cell 201B7 strain = experiment: iPS cell proliferation system (cell number); format: cell-based, human; details: matrigel, Essential-8 medium
Protocol: The cell proliferation effect of various test compounds was evaluated using artificial pluripotent stem cell (iPS cell). 201B7 strain purchased from iPS Academia Japan, Inc. was grown in a culture container coated with a basal lamina matrix (matrigel manufactured by Nippon Becton Dickinson Company, Ltd., or a fragment containing an active domain of laminin 511 purchased from OSAKA UNIVERSITY) (Becton, Dickinson and Company, Falcon culture petri dish or Falcon culture plate), contained in a feeder-free medium for human ES/iPS cell (ReproCELL Inc, ReproFF2).
In this medium were suspended iPS cells in colony state, and a 2.5- to 3.5-fold diluted amount of the original culture was plated on a 6-well culture plate coated with a basal lamina matrix (Nippon Becton Dickinson Company, Ltd., Falcon culture plate). […] After culturing for 6 to 12 days, the medium was removed, the cells were detached from the culture plate by a trypsin-EDTA (Sigma-Aldrich Ltd.) or TrypLE Select (Invitrogen) treatment and the cell number was measured. The cell number was measured by the method described in “Kaitei Saibou baiyou Nyuumon Note, page 77-83, 2010, YODOSHA CO., LTD.” which is incorporated herein by reference in its entirety.
When the cells were seeded in a dissociation state of the cells (single cell state), a test compound solution after filter sterilization was added to a medium containing Y-27632 (Nacalai Tesque) to a given concentration, and dispensed to a 6 well culture plate. Thereto were plated iPS cells suspended in a medium containing Y-27632 at 100,000 cells/well, and cultured for 6 to 8 days. On the next day of seeding, the medium was exchanged to a medium (without Y-27632) added with the test compound alone. When medium exchange was necessary, the medium was exchanged every 2 or 3 days. […] After culturing for 6 to 8 days, the cell number was measured by a method similar to that mentioned above.
When the evaluation was performed in Essential 8 medium (Invitrogen), which is a different feeder-free medium for iPS cell, iPS cells cultured in a medium obtained by adding human serum albumin (Sigma-Aldrich Co. LLC) to Essential 8 medium were used.

[3] = Measurement of content level of sulfur in test compound (ICP); format: physicochemical; details: ICPS-8100, evaluation samples containing 0.01 wt % test compound
Text: (§1) The content level of sulfur in the sulfated saccharide is generally not less than 5 wt %, preferably not less than 10 wt %, more preferably not less than 15 wt %, and the upper limit is generally not more than 40 wt %, preferably not more than 35 wt %, more preferably not more than 30 wt %. […] Here, the content level of sulfur is a proportion in wt % of sulfur derived only from the sulfate group in sulfated saccharides, which can be measured by a method known in the field (e.g., rhodizonate method, elemental analysis or luminescent spectral analysis).
as §1, with “polymer” for “saccharide”, “wt” for “wt %, preferably not more than 35 wt %, more preferably not more than 30 wt”, “in” for “derived only from”, “the” for “the sulfate group in”, “polymer,” for “saccharides,”, “such as” for “(e.g.,”
The relationship between the content level of sulfur in a test compound (sulfur content) and the cell proliferation promoting effect was examined. The sulfur content was measured using ICPS-8100 manufactured by SHIMADZU CORPORATION and analyzed using ICPS-8000 series Ver1.03. As the reference standard of sulfur, the standard for ICP-MS manufactured by Accu Standard was used. Sulfur reference standard solutions (0, 1, 10, 30, 50 ppm) were prepared, and the sulfur content of the evaluation samples containing 0.01 wt % test compound was measured by an analytical curve method.

[4] = system: Human bone marrow-derived mesenchymal stem cells; experiment: Mesenchymal stem cell proliferation system (cell number by DNA quantification); details: for effectiveness cells: growth of mesenchymal stem cell, control ratio
Protocol: Human bone marrow-derived mesenchymal stem cells (Lonza, Human Mesenchymal Stem Cell) cultured in mesenchymal stem cell-dedicated medium (Lonza, MSCGM) or Dulbecco's Modified Eagle Medium (Invitrogen, GIBCO D-MEM) containing inactivated fetal bovine serum (Invitrogen, GIBCO FBS) and penicillin-streptomycin (Sigma-Aldrich Co. LLC.) were cultured in exchanged Lonza serum-free medium. The mesenchymal stem cells thus-acclimated to serum-free culture were suspended in Lonza serum-free medium, and seeded on a 24 well culture plate (Nippon Becton Dickinson Company, Ltd., Falcon culture plate) at 20,000 cells/well or a 6 well culture plate (Nippon Becton Dickinson Company, Ltd., Falcon culture plate) at 50,000 cells/well. Then, a test compound solution after filter sterilization and adjustment to a given concentration was added, and the cells were cultured in an incubator (Thermo Scientific, Forma incubator) under the 5% CO2/37° C. conditions for 7 to 8 days. When the medium exchange was necessary, the medium was exchanged 2 to 3 days after the seeding. In this case, the test compound solution was also added again in the same manner as in seeding. In this case, various compound solutions were added again in the same manner as in seeding. After culturing for 7 to 8 days, the medium was removed and DNA quantification was performed. As a control, the cells were cultured in the same manner in a medium without a test compound and added with phosphate buffered saline.
The medium in the 24 well culture plate was removed, and the cells were washed with phosphate buffered saline. The sodium lauryl sulfate solution (500 μl/well) was added, and the mixture was left standing at 37° C. for 4 hours. The sodium lauryl sulfate solution (1.0 ml) was also added to a cell pellet with a known cell number, and the mixture was left standing at 37° C. for 4 hours. As for the cells in the 24 well culture plate, a part (50 μl) of the lysate was transferred to a 96 well black microplate. The solution used for treating the cell pellets was successively diluted with sodium lauryl sulfate solution and used as solutions for drawing an analytical curve. Also, a part (50 μl) of the solutions for drawing an analytical curve was each transferred to the 96 well black microplate. […] The fluorescence was measured by a microplate reader (excitation wavelength: 355 nm, measurement wavelength: 460 nm) within 5 minutes from the addition. The cell number of the 24 well cell culture plate was calculated from the analytical curve drawn (conversion formula). The evaluation criteria were as follows.

[5] = 37° C. for 7 days, test compound 25 ng/ml
[6] = 37° C. for 7 days, test compound 250 ng/ml
[7] = 37° C. for 7 days, test compound 25 μg/ml
[8] = 37° C. for 7 days, test compound 250 μg/ml
[9] = 37° C. for 3 days, test compound 25 ng/ml
[10] = 37° C. for 3 days, test compound 250 ng/ml
[11] = 37° C. for 3 days, test compound 25 μg/ml
[12] = 37° C. for 3 days, test compound 250 μg/ml

Substance | bFGF concentration relative to that of 4° C. control (ELISA) (bFGF [1]; [5]) | bFGF concentration relative to that of 4° C. control (ELISA) (bFGF [1]; [6]) | bFGF concentration relative to that of 4° C. control (ELISA) (bFGF [1]; [7]) | bFGF concentration relative to that of 4° C. control (ELISA) (bFGF [1]; [8]) | effectiveness ELISA (bFGF [1]) | concentration showing a suppressive effect on a decrease in the bFGF concentration of the medium (bFGF [2]) | bFGF concentration relative to that of 4° C. control (ELISA) (bFGF [2]; test compound 250 pg/ml) | bFGF concentration relative to that of 4° C. control (ELISA) (bFGF [2]; test compound 25 ng/ml) | bFGF concentration relative to that of 4° C. control (ELISA) (bFGF [2]; test compound 250 ng/ml) | bFGF concentration relative to that of 4° C. control (ELISA) (bFGF [2]; test compound 25 μg/ml) | bFGF concentration relative to that of 4° C. control (ELISA) (bFGF [2]; test compound 250 μg/ml) | number of cells relative to control (iPS cell 201B7 strain; test compound 25 ng/ml) | number of cells relative to control (iPS cell 201B7 strain; test compound 250 ng/ml) | sulfur content Found (inorganic analysis) [3] [wt %] | effectiveness cells [4] | concentration showing a suppressive effect on a decrease in the bFGF concentration in the medium (bFGF [1]; 37° C. for 3 days) | bFGF concentration relative to that of 4° C. control (ELISA) (bFGF [1]; [9]) | bFGF concentration relative to that of 4° C. control (ELISA) (bFGF [1]; [10]) | bFGF concentration relative to that of 4° C. control (ELISA) (bFGF [1]; [11]) | bFGF concentration relative to that of 4° C. control (ELISA) (bFGF [1]; [12]) | also measured
maltotriose SO3Na | x (bFGF concentration was less than 10% relative to that of 4 °C control) | x (bFGF concentration was less than 10% relative to that of 4 °C control) | + (bFGF concentration was not less than 30% and less than 50% relative to that of 4 °C control) | +++ (bFGF concentration was not less than 70% relative to that of 4 °C control) | +++ (+++ 70%<) | not less than 250 ng/ml | x (bFGF concentration was less than 10% relative to that of 4 °C control) | x (bFGF concentration was less than 10% relative to that of 4 °C control) | − (bFGF concentration was not less than 10% and less than 30% relative to that of 4 °C control) | +++ (bFGF concentration was not less than 70% relative to that of 4 °C control) | +++ (bFGF concentration was not less than 70% relative to that of 4 °C control) | ◯ (not less than 100%: ◯) | ◯ (not less than 100%: ◯) | 13 | ⊚ (⊚ not less than 120%) | – | – | – | – | – | –
maltoheptaose SO3Na | + (bFGF concentration was not less than 30% and less than 50% relative to that of 4 °C control) | x (bFGF concentration was less than 10% relative to that of 4 °C control) | +++ (bFGF concentration was not less than 70% relative to that of 4 °C control) | ++ (bFGF concentration was not less than 50% and less than 70% relative to that of 4 °C control) | +++ (+++ 70%<) | not less than 250 ng/ml | x (bFGF concentration was less than 10% relative to that of 4 °C control) | x (bFGF concentration was less than 10% relative to that of 4 °C control) | + (bFGF concentration was not less than 30% and less than 50% relative to that of 4 °C control) | +++ (bFGF concentration was not less than 70% relative to that of 4 °C control) | +++ (bFGF concentration was not less than 70% relative to that of 4 °C control) | ⊚ (not less than 120%: ⊚) | — (100%-50%: —) | 16 | ⊚ (⊚ not less than 120%) | not less than 25 ng/ml | − (bFGF concentration was not less than 10% and less than 30% relative to that of 4 °C control) | ++ (bFGF concentration was not less than 50% and less than 70% relative to that of 4 °C control) | ++ (bFGF concentration was not less than 50% and less than 70% relative to that of 4 °C control) | ++ (bFGF concentration was not less than 50% and less than 70% relative to that of 4 °C control) | concentration showing promoted cell proliferation as compared to the control ([4]; mesenchymal stem cells, Lonza serum-free medium): 250 ng/mL
erythritol SO3Na | x (bFGF concentration was less than 10% relative to that of 4 °C control) | x (bFGF concentration was less than 10% relative to that of 4 °C control) | x (bFGF concentration was less than 10% relative to that of 4 °C control) | + (bFGF concentration was not less than 30% and less than 50% relative to that of 4 °C control) | + (+ 30%<) | not less than 25 μg/ml | x (bFGF concentration was less than 10% relative to that of 4 °C control) | x (bFGF concentration was less than 10% relative to that of 4 °C control) | x (bFGF concentration was less than 10% relative to that of 4 °C control) | + (bFGF concentration was not less than 30% and less than 50% relative to that of 4 °C control) | +++ (bFGF concentration was not less than 70% relative to that of 4 °C control) | – | – | 16 | ◯ (◯ not leas than 100%) | not less than 25 μg/ml | x (bFGF concentration was less than 10% relative to that of 4 °C control) | x (bFGF concentration was less than 10% relative to that of 4 °C control) | ++ (bFGF concentration was not less than 50% and less than 70% relative to that of 4 °C control) | +++ (bFGF concentration was not less than 70% relative to that of 4 °C control) | –
